# Assay results published in patent publication US10759777B2, “Carbazole-containing amides, carbamates, and ureas as cryptochrome modulators” (Synchronicity Pharma, Inc., priority 2014, dated 2020).
# Tests used:
# [1] = test system: db/db mouse model of type II diabetes; assay: Increasing dosages of Compound 72 over 7 days in db/db mice; format: in vivo
# Description: (§1) Significance was accepted when p<0.05.
# [2] = test system: db/db mouse model of type II diabetes; assay: Compound 72 administered over 7 days in db/db mice (glucose, insulin, compound levels); format: in vivo; details: 50 mg/kg PO QD 7 days
# Description: as §1
# [3] = test system: db/db mouse model of type II diabetes; assay: Single dose at peak or nadir of clock gene expression, OGTT in db/db mice; format: in vivo
# Description: Mice were split into two study arms, to be dosed at either the peak or nadir of Cry1 and Bmal1 gene expression. […] Mice dosed at ZT10 were fasted beginning at 8:30 am in the same manner.
# as §1
# [4] = test system: core clock genes (Per2, Bmal1, Cry1, Cry2) and gluconeogenic genes (Pckl, G6Pc) in liver; assay: 24 hour gene expression studies, liver mRNA by RT-qPCR; format: in vivo, mouse; details: 50 mg/kg PO BID
# Description: Male C57Bl/6J DIO mice were purchased at 17 weeks of age (The Jackson Laboratory, Sacramento, Calif.) and acclimated for a 2 week period before being used for the experiment. Overall group size was 15 per treatment, divided into 5 time-points to give a final group size of 3 mice.
# In total, each mouse received 5 doses of compound over the course of the experiment. Mice were weighed and randomly assigned to each treatment based on weight the evening before the commencement of the study. Beginning on Day 3 at 3:00 PM, a group of animals from the vehicle and Compound 72-treated groups were euthanized using CO2 asphyxiation, 50 mg of liver, epididymal fat, and skeletal muscle, respectively, were excised and placed in tube containing 500 μl of RNALater. This procedure took place for the remainder of the time-point groups at their given harvest times. Plasma samples were also taken for each animal and frozen, to be used for later measurement of compound levels.
# E.Z.N.A.® HP Total RNA Isolation Kits (R6812-01 and the protocol described in the Manual, Revised 2010) were utilized to prepare and isolate RNA from the liver samples. To prepare the RNA samples, 10-30 mg of sample was removed from RNA-Later and placed in a 1.5 ml microfuge tube. GTC lysis buffer (700 μl) was added to the tissue, which was homogenized with a rotor-stator homogenizer (e.g. Tissue-Tearor, Model #985370 BioSpec Products with 4.5 mm probe, Cat. #985370-04), and then centrifuged at full speed (≥13,000×g) for 5 minutes. The cleared supernatant was transferred by pipetting to a DNA Clearance Column Pre-inserted in a 2 mL Collection Tube. The assembled column was centrifuged at 13,000×g for 1 minute, and the flow-through was saved. An equal volume (700 μl) of 70% ethanol was added to the lysate and mixed. The sample was then applied to a HiBind RNA spin column placed into a 2 ml collection tube, which was centrifuged at 10,000×g for 60 seconds at room temperature. RNA Wash Buffer I (250 μl) was added by pipetting directly onto a new HiBind RNA column inserted in a 2 ml collection tube. The assembled column was centrifuged at 10,000×g for 60 seconds. The RNA column was placed into a new 2 ml collection tube. DNase I stock solution is pipetted (75 μl) directly onto the surface of the HiBind RNA resin in each column (Using DNAse Digestion with RNase Free DNase Set (E1091): for each HiBind RNA column, the DNase I stock solution was prepared as followed: E.Z.N.A.® DNase I Digestion Buffer 73.5 μl, RNase Free DNase I (20 Kunitz/μl) 1.5 μl=Total Volume 75 μl). The column with bound RNA was incubated at room temperature (25-30° C.) for 15 minutes. RNA Wash Buffer I (500 μl) was added to the column and placed on a bench top for 2 minutes. After centrifuging at 10,000×g for 60 seconds, discarding the flow-through, 500 μl of RNA Wash Buffer II was added and centrifuged at 10,000×g for 60 seconds. Another 500 μl of RNA Wash Buffer II was added and the column assembly was centrifuged at 10,000×g for 60 seconds. The column was centrifuged for 2 minutes at maximum speed to completely dry the HiBind matrix. The column was placed in a clean 1.5 ml microcentrifuge tube and 40-70 μl of molecular biology grade water is added. […]
# RediPlate 96 RiboGreen RNA Quantification Kit (Invitrogen) RediPlate standard curve was prepared by transferring 20 l reconstituted RNA standard to a RediPlate well reconstituted in 180 l RediPlate TE buffer. […]
# [5] = Pharmacokinetic analysis in SD rats; format: in vivo; details: plasma; rat; 50 mg/kg P.O.
# Method: Male SD rats (weighing 250-300 g, Charles River Laboratories) were used for the experiment with n=4 rats for each experimental group. […] Blood was collected at the following time points after administration: 15, 30, 60, 90 minutes, 3, 6, 12 and 24 hours. A pre-dose sample was also collected. Animals were cannulated by technical staff at Charles River, prior to delivery at Reset. Whole blood (0.3 ml) was collected from a cannula in the right common jugular vein at each time-point. The whole blood was transferred to an EDTA tube, and then centrifuged at 5400 rpm for 5 minutes at 4° C. The resultant plasma was frozen using dry ice and then stored at −80° C. until ready for assay. 0.9% Sodium Chloride (0.3 ml) was administered for fluid replenishment after each blood draw. 0.1 ml of Sodium Heparin (500 IU/ml) was used as a lock solution after the 12 hr time-point. Samples were assayed as described above.
compound,measurement,setting,value
"O=C1NCCN1CC(O)Cn1c2ccc(F)cc2c2cc(F)ccc21 (stereo not drawn) [Compound 72, 1-(3-(3,6-difluoro-9H-carbazol-9-yl)-2-hydroxypropyl)imidazolidin-2-one]",reduction of HOMA-IR compared to vehicle,[1]; 100 mg/kg PO QD 7 days,34%
same,OGTT glucose excursion,"[1]; 10, 50, 100 mg/kg PO QD 7 days",dose dependent effect on glucose excursion
same,OGTT glucose course,[2]; db/db mice,lower than the vehicle control group
same,reduction of HOMA-IR,[2]; vs vehicle,33%
same,reduction of insulin at t=0,[2]; vs vehicle,20%
same,reduction of insulin at t=2 hr,[2]; vs vehicle,21%
same,"effect on OGTT measurement, dosed at peak","[3]; 50 mg/kg PO single dose at ZT0, db/db mice",apparent effect
same,"effect on OGTT measurement, dosed at nadir","[3]; 50 mg/kg PO single dose at ZT10, db/db mice",no effect
same,reduction in glucose excursion (AUC),"[3]; 50 mg/kg PO single dose at peak (ZT0), vs vehicle",14%
same,Cry2 mRNA in liver (daytime peak),[4]; C57Bl/6J DIO and Balb/c mice,strongly attenuated
same,Per2 mRNA in liver,"[4]; C57Bl/6J DIO and Balb/c mice, over 24 hours, vs vehicle",suppressed
same,circadian pattern of mRNAs for gluconeogenic genes Pckl and G6Pc,"[4]; C57Bl/6J DIO mice, relative to vehicle",substantially altered
same,Bmal1 mRNAs in liver,"[4]; both strains, at ZT8 and 32 hours after ZT0, vs vehicle",substantially increased
same,Cry1 mRNA in liver,[4]; during its peak of expression in the dark period,suppressed
same,% AUC extrapolated,[5],3.3%
